{"source": "patent US6309839A", "about": "“Screening methods for compounds that inhibit or stimulate helicase enzyme activity” (Board of Trustees of the University of Arkansas, priority 2000, dated 2001)", "origin": "cited, not measured here", "biological_target": "streptavidin (Streptomyces avidinii, UniProt P22629)", "sequence (P22629 25-183)": "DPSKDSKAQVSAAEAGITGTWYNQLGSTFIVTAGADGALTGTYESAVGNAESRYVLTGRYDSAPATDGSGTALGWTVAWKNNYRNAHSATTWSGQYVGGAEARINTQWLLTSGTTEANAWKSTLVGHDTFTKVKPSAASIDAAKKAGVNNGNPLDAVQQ", "conditions": "no helicase present"}
{"smiles": "O=C(O)CCCC[C@@H]1SC[C@@H]2NC(=O)N[C@@H]21", "note": "[biotin]", "values": [{"measurement": "spontaneous dissociation rate of streptavidin from biotin", "value": 0.00033, "unit": "min⁻¹"}]}
